The values that follow come from US20250312462A1, “PAK1 DEGRADERS AND METHODS OF USE THEREOF” (INSTITUTE FOR CANCER RESEARCH D/B/A THE RESEARCH INSTITUTE …, priority 2022, published 2025).

For one assay, the target named is ACVR2A (Homo sapiens, UniProt P27037). The assay is described as follows: KINOMEscan. Conditions: read-out: Percent Control.
For the next assay, the target named is FYN (Homo sapiens, UniProt P06241). The assay is described as follows: KINOMEscan. The settings on record: read-out: Percent Control.
Another assay deals with CDK3 (Homo sapiens, UniProt Q00526). Briefly: KINOMEscan. Conditions: read-out: Percent Control.
In a further assay the target is MTOR (Homo sapiens, UniProt P42345). The assay is described as follows: KINOMEscan. Conditions: read-out: Percent Control.
The next assay deals with NIK (Homo sapiens, UniProt Q99558). The assay is described as follows: KINOMEscan. Conditions: read-out: Percent Control.
The next assay concerns the target PIK3CG (Homo sapiens, UniProt P48736). The assay is described as follows: KINOMEscan. Conditions: read-out: Percent Control.
The target of a further assay is FGR (Homo sapiens, UniProt P09769). Briefly: KINOMEscan. Conditions: read-out: Percent Control.
The next assay concerns the target EGFR(G719C) (Homo sapiens, UniProt P00533, G719C). The assay is described as follows: KINOMEscan. The settings on record: read-out: Percent Control.
For another assay, the target named is SLK (Homo sapiens, UniProt Q9H2G2). Briefly: KINOMEscan. Conditions: read-out: Percent Control.
For a further assay, the target named is SRPK2 (Homo sapiens, UniProt P78362). The assay is described as follows: KINOMEscan. The settings on record: read-out: Percent Control.
A further assay concerns the target PIK3CA(H1047Y) (Homo sapiens, UniProt P42336, H1047Y). The assay is described as follows: KINOMEscan. The settings on record: read-out: Percent Control.
A further assay addresses TRPM6 (Homo sapiens, UniProt Q9BX84). The assay is described as follows: KINOMEscan. The settings on record: read-out: Percent Control.
For another assay, the target named is PCTK1 (Homo sapiens, UniProt Q00536). The assay is described as follows: KINOMEscan. Conditions: read-out: Percent Control.
Another assay addresses ABL1-phosphorylated (Homo sapiens, UniProt P00519). Briefly: KINOMEscan. The settings on record: read-out: Percent Control.
A further assay addresses ERBB2 (Homo sapiens, UniProt P04626). The assay is described as follows: KINOMEscan. The settings on record: read-out: Percent Control.
Another assay addresses IRAK1 (Homo sapiens, UniProt P51617). The assay is described as follows: KINOMEscan. Conditions: read-out: Percent Control.
Another assay concerns the target PAK1 (Homo sapiens, UniProt Q13153). Briefly: Global multiplexed mass spectrometry proteomics in MOLT4 cells. Conditions: 1 μM, 5 hours. Further details: endogenous in cells; host or cells: MOLT4. Type of assay: cell-based. The method, then:
MOLT4 cells were treated with DMSO in biological triplicate and 1 μM BJG-05-039 for 5 hours and harvested by centrifugation. Cell lysis was performed by the addition of Urea buffer (8 M Urea, 50 mM NaCl, 50 mM 4-(2-hydroxyethyl)-1-piperazineethanesulfonic acid (EPPS) pH 8.5, Protease and Phosphatase inhibitors) followed by manual homogenization by 20 passes through a 21-gauge (1.25 in. long) needle. Lysate was clarified by centrifugation at 4° C. and protein quantified using bradford (Bio-Rad) assay. 100 μg of protein for each sample was reduced, alkylated and precipitated using methanol/chloroform as described (Donovan, et al. (2018) Elife 7: e38430). The resulting precipitated protein was resuspended in 4 M Urea, 50 mM HEPES pH 7.4, buffer for solubilization, followed by dilution to 1 M urea with the addition of 200 mM EPPS, pH 8. Proteins were digested for 12 hours at room temperature with LysC (1:50 ratio), followed by dilution to 0.5 M urea and a second digestion step was performed by addition of trypsin (1:50 ratio) for 6 hours at 37° C. […]
Quantification was performed using a MS3-based TMT method as described (Donovan et al. (2020) Cell 183(6):1714-1731). […]
Proteome Discoverer 2.4 (Thermo Fisher Scientific) was used for .RAW file processing and controlling peptide and protein level false discovery rates, assembling proteins from peptides, and protein quantification from peptides. […]

Chain of PIK3CG (P48736 whole entry): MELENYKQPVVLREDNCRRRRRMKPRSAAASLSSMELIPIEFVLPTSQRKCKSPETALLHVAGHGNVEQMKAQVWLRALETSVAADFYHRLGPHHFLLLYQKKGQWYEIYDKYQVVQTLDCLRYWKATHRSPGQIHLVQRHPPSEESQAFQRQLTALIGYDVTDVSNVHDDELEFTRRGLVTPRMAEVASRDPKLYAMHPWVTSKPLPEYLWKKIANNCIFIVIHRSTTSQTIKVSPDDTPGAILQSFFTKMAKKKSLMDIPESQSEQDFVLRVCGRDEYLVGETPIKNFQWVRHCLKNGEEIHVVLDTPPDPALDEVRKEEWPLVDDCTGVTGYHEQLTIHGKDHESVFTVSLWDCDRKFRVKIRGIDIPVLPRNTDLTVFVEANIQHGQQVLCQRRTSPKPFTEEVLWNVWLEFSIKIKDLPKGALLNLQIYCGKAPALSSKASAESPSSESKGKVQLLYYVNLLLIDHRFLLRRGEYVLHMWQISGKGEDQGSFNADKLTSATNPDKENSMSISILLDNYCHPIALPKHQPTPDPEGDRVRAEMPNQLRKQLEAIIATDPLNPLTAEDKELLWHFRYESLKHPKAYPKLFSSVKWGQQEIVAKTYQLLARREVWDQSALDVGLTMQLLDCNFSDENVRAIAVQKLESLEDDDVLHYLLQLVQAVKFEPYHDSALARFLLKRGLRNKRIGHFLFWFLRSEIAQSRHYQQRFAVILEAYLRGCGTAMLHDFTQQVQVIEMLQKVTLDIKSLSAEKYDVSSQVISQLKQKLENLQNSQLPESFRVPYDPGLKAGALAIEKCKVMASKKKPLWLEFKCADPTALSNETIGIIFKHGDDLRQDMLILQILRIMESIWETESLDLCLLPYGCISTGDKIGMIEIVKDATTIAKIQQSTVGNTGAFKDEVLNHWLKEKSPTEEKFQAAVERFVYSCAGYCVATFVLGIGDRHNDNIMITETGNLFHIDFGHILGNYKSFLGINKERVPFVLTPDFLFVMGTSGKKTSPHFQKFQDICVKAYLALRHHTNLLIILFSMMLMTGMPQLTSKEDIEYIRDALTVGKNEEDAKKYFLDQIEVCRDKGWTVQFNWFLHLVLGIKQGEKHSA
Chain of FYN (P06241 whole entry): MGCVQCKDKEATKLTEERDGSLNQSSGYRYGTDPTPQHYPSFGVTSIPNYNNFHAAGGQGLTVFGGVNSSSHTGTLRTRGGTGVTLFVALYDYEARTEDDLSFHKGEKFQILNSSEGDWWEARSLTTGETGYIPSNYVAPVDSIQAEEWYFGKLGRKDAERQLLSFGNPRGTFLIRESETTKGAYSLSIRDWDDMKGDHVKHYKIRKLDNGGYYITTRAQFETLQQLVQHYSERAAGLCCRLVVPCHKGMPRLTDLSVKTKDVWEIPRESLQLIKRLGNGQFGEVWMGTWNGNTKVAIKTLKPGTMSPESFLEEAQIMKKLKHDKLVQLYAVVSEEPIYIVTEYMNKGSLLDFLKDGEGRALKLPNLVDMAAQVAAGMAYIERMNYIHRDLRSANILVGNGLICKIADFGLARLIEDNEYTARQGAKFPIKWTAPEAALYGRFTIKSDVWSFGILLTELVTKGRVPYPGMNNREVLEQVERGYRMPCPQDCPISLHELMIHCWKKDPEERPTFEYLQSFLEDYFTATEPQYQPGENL
Chain of PCTK1 (Q00536 whole entry): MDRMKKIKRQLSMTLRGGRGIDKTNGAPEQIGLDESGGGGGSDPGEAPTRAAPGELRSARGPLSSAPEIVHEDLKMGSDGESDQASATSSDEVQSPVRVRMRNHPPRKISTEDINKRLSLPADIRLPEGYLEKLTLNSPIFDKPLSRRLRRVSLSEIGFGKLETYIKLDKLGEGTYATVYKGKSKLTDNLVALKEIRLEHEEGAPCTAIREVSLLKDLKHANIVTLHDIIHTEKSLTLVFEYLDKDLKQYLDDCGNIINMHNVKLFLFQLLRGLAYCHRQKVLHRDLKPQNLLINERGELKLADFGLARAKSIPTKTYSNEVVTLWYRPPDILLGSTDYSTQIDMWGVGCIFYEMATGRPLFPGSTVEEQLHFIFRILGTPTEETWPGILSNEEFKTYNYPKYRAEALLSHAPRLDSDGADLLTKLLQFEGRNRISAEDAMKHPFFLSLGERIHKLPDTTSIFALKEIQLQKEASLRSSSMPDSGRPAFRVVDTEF
Chain of ACVR2A (P27037 20-513): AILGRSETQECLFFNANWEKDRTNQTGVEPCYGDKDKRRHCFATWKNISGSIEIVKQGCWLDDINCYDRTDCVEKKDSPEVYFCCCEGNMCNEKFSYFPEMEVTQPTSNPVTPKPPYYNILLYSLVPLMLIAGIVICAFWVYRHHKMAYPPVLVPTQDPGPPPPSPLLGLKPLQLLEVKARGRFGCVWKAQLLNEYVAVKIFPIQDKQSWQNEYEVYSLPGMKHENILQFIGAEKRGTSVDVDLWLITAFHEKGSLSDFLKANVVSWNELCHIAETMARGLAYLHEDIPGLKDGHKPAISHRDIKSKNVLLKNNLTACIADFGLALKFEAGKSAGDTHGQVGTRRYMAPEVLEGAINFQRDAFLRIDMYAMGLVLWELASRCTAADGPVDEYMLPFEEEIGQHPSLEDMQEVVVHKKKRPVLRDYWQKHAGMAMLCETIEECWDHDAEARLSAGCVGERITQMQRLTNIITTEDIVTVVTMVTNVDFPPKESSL
Chain of EGFR(G719C) (P00533 25-1210 G719C): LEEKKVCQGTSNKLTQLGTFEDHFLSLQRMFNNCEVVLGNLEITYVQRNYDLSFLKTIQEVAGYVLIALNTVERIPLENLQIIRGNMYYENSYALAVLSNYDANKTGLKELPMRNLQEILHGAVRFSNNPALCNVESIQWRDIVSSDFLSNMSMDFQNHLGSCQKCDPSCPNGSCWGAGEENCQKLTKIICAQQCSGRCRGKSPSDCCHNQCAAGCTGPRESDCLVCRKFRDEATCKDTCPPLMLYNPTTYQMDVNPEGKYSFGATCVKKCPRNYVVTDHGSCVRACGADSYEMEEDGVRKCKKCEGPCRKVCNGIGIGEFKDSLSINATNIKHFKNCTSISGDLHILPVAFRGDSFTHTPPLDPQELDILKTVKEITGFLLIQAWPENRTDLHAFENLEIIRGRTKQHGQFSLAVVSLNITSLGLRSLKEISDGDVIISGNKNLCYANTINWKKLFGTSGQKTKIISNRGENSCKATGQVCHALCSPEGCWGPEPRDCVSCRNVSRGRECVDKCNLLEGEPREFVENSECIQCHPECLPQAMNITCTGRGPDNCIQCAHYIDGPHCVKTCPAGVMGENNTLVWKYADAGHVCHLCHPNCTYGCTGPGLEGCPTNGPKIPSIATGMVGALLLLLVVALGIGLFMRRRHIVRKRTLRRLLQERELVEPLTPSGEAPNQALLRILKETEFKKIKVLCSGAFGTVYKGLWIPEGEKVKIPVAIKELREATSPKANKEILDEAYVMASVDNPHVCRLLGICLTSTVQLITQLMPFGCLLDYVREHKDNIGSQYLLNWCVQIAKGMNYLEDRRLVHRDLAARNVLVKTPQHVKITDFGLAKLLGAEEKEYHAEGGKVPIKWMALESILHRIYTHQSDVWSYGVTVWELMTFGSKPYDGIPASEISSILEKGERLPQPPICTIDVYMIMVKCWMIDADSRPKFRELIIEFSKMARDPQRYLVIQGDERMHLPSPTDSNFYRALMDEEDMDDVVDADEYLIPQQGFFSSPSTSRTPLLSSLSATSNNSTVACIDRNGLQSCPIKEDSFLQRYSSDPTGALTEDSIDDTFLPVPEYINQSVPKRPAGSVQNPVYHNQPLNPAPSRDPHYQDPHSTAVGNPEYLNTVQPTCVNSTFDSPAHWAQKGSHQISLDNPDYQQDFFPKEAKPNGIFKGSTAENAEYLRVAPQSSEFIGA
Chain of PIK3CA(H1047Y) (P42336 whole entry H1047Y): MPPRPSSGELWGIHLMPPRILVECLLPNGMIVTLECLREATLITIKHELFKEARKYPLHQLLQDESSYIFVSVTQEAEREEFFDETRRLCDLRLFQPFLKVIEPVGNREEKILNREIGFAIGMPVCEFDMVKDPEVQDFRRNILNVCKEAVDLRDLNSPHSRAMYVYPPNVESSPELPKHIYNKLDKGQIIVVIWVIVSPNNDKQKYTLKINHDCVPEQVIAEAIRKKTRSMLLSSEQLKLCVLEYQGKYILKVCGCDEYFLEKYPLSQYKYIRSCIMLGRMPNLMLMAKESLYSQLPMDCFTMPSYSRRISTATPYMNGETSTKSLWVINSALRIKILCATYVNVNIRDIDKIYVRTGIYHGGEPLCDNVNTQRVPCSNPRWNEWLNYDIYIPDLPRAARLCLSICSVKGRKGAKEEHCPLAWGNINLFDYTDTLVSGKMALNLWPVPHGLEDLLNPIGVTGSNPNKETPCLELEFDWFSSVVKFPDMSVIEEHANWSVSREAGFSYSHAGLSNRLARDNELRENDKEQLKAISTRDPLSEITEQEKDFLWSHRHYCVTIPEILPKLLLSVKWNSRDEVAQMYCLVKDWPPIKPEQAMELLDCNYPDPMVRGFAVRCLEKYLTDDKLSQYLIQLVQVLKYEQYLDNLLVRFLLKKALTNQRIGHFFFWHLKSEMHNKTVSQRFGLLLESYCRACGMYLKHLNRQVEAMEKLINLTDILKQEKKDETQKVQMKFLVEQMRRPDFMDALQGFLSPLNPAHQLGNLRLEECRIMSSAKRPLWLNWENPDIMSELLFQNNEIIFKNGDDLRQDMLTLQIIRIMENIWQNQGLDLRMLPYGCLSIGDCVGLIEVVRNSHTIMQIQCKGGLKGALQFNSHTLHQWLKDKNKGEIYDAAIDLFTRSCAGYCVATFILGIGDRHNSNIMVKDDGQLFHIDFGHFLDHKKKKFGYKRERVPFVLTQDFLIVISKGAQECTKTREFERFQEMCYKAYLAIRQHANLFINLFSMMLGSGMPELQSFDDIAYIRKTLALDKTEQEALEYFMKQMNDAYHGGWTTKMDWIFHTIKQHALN
Procedure for ABL1-phosphorylated: (§1) The kinase engagement assay (KINOMEscan®) was performed by DiscoverX assessing binding abilities toward a set of kinases.
Procedure for ACVR2A: as §1
Procedure for CDK3: as §1
Procedure for EGFR(G719C): as §1
Procedure for ERBB2: as §1
Procedure for FGR: as §1
Procedure for FYN: as §1
Procedure for IRAK1: as §1
Procedure for MTOR: as §1
Procedure for NIK: as §1
Procedure for PCTK1: as §1
Procedure for PIK3CA(H1047Y): as §1
Procedure for PIK3CG: as §1
Procedure for SLK: as §1
Procedure for SRPK2: as §1
Procedure for TRPM6: as §1

As for `O=C1CCC(N2C(=O)c3cccc(NCCCCCCCCNC(=O)N4CC[C@H](NC5=Nc6cc(F)ccc6N(CC(F)F)c6ccc(Cl)cc65)C4)c3C2=O)C(=O)N1` (stereo partly drawn) [BJG-05-039, (3S)-3-((2-Chloro-5-(2,2-difluoroethyl)-8-fluoro-5H-dibenzo[b,e][1,4]diazepin-11-yl)amino)-N-(8-((2-(2,6-dioxopiperidin-3-yl)-1,3-dioxoisoindolin-4-yl)amino)octyl)pyrrolidine-1-carboxamide], the remaining binding at 10 µM at ACVR2A is 51%; on FYN it was 71%; on CDK3, 74%; on MTOR it was 74%; on NIK, 76%; at PIK3CG it was 77%. The remaining binding at 10 µM on FGR was 82%; on EGFR(G719C), 83%; at SLK it was 91%; at SRPK2, 91%; at PIK3CA(H1047Y), 94%; on TRPM6 it was 94%. Moreover, the remaining binding at 10 µM at PCTK1 turned out to be 97%; on ABL1-phosphorylated, 100%; on ERBB2, 100%; at IRAK1, 100%. The “Change in protein abundance” value at PAK1 is on record as “significant downregulation of this kinase was not apparent”.
